{"source": "patent US20100286139A1", "about": "“AMINO PYRAZOLE COMPOUND” (ELI LILLY AND COMPANY, priority 2008, published 2010)", "target": "T1, JAK3 (Homo sapiens, UniProt P52333)", "T1 construct": "host or cells: NK-92 natural killer cells, IL-2-stimulated", "T1 sequence (P52333 1-1124)": "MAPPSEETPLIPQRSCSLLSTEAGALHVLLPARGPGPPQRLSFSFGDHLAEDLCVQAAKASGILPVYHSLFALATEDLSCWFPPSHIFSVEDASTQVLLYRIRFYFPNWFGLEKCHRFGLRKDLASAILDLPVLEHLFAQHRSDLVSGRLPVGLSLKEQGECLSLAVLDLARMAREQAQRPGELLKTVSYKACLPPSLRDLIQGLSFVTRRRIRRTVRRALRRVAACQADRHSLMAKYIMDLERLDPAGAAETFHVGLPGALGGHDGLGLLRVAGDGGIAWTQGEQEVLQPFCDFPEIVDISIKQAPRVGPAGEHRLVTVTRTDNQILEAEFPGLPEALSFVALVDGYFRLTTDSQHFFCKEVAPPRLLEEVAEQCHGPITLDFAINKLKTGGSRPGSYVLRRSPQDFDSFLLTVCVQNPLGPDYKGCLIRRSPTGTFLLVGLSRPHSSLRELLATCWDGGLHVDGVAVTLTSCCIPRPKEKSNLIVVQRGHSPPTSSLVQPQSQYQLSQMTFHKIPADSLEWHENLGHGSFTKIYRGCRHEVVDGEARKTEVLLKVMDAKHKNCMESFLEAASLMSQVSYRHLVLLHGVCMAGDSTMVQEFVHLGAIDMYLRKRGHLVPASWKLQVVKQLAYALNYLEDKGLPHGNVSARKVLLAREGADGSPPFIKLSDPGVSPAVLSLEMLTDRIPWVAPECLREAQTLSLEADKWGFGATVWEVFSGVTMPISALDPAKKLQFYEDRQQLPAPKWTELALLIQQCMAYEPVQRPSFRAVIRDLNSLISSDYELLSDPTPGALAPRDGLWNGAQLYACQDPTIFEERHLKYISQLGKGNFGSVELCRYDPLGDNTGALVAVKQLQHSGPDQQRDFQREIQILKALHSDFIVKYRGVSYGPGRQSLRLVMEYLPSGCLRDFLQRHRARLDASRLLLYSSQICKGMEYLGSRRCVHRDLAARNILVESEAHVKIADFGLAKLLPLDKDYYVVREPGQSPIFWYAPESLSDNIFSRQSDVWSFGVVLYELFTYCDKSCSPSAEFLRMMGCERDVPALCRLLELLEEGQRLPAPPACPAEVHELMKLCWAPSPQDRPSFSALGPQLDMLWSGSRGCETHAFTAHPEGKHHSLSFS", "test": "JAK3 IL-2-NK-92/pSTAT5 cell-based assay (Cellomics ArrayScan HCS)", "source_text": "IL-2 activates the JAK3 pathway in natural killer (NK) cells to drive the NK and CD8 lymphocyte proliferation. Therefore, IL-2 stimulated NK92/pSTAT5 cell-based assay enables the evaluation of the JAK3 cellular activity of JAK2 compounds in vitro.\nNK-92 (natural killer) cells (ATCC, Manassas, Va.) are maintained in minimum essential medium (MEM) Alpha with 15% fetal bovine serum, 15% Horse Serum and 1× antibiotic/antimycotic (Invitrogen, Carlsbad, Calif.). The medium is supplemented with IL-2 (R&D systems, Minneapolis, Minn.) for a final concentration of 4 ng/mL. Cells are kept at 37° C. with 5% CO2. Cells are starved in serum free medium to remove endogenous growth factors. NK-92 cells are counted and collected to seed 2×10^7 cells per 96-well plate at a density of 2×10^5 cells per well. The cells are rinsed twice with unsupplemented MEM Alpha (MEM Alpha) before suspending cells at a final concentration of 8×10^5 cells/mL in MEM Alpha with 0.6% serum (0.3% FBS, 0.3% horse serum). […]\nTo perform the assay, serum-starved cells are collected and washed once with unsupplemented RPMI 1640 medium. […] An aliquot of 200 μL of 1 to 10 dilution of Mouse anti-pSTAT5 (pY694) Alexa Fluor 647® in fluorescence activated cell sorting (FACS) buffer is added to the cells. […] Mean fluorescent intensity data are collected and analyzed using Cellomics Arrayscan® VTi. […] The MSR is determined to be 2.06. […]"}
{"smiles": "Cc1cc(Nc2cc(CN3CCOCC3)c3nc(C)c(Cc4ccc(Cl)cc4F)n3n2)n[nH]1", "note": "[3-(4-Chloro-2-fluorobenzyl)-2-methyl-N-(5-methyl-1H-pyrazol-3-yl)-8-(morpholinomethyl)imidazo[1,2-b]pyridazin-6-amine]", "values": [{"measurement": "ratio of JAK3/JAK2 IC50", "setting": "JAK3 IL2-NK92-pSTAT5 IC50 over JAK2 EPO-TF1/pSTAT5 IC50", "value": 28.5, "unit": "fold"}, {"measurement": "IC50", "setting": "NK-92 cells, IL-2 0.5 ng/mL stimulated, n=4, read-out: relative IC50, inhibition of pSTAT5", "value": 940, "unit": "nM"}]}
